# pEC50, pIC50, pKd: −log10 of the molar value. The source made the active and inactive calls. The calls are words filed in the database; no cut-off is given here.
# Legend:
# HeLa [1] = test: Inhibition of cellular nuclear export in human HeLa cells transfected with hCRM1-C528T/K568A dual mutant at 10 uM incubated for 72 hrs replaced with compound containing fresh culture medium every 12 hrs by Sulforhodamine B assay; assay type: functional, cell-based
# HCT-116 = test: Anti-cancer activity against human HCT-116 cells assessed as cell survival at 10 uM for 72 hrs replaced with compound containing fresh culture medium every 12 hrs by Sulforhodamine B assay; assay type: functional, cell-based
# HepG2 [2] = test: Anti-cancer activity against human HepG2 cells assessed as inhibition of cell viability measured for 72 hrs replaced with compound containing fresh culture medium every 12 hrs by Sulforhodamine B assay; assay type: functional, cell-based
# A2780 [3] = test: Induction of apoptosis in human A2780 cells assessed as viable cells at 1 uM replaced with compound containing fresh culture medium every 12 hrs measured for 72 hrs by Annexin V FITC/propidium iodide staining based flow cytometric analysis (reference value: 93.97%); assay type: functional; conditions: read-out: Activity
# A2780 [4] = test: Anti-cancer activity against human A2780 cells assessed as inhibition of cell viability measured for 72 hrs replaced with compound containing fresh culture medium every 12 hrs by Sulforhodamine B assay; assay type: functional, cell-based
# A2780 [5] = test: Induction of apoptosis in human A2780 cells assessed as late apoptotic cells at 1 uM replaced with compound containing fresh culture medium every 12 hrs measured for 72 hrs by Annexin V FITC/propidium iodide staining based flow cytometric analysis (reference value: 1.35%); assay type: functional
# A2780 [6] = test: Anti-cancer activity against human A2780 cells assessed as fold increase Annexin V positive cells at 10 uM incubated for 2 hrs by EdU incorporation based assay; assay type: functional
# HeLa [7] = test: Anti-cancer activity against human HeLa cells assessed as inhibition of DNA synthesis at 1 to 10 uM incubated for 2 hrs by EdU incorporation based assay; assay type: functional, cell-based; conditions: dose 1-10 µM
# A549 [8] = test: Anti-cancer activity against human A549 cells assessed as inhibition of cell viability measured for 72 hrs replaced with compound containing fresh culture medium every 12 hrs by Sulforhodamine B assay; assay type: functional, cell-based
# PANC-1 = test: Anti-cancer activity against human PANC-1 cells assessed as cell survival at 10 uM for 72 hrs replaced with compound containing fresh culture medium every 12 hrs by Sulforhodamine B assay; assay type: functional, cell-based
# HeLa [9] = test: (§1) Inhibition of cellular nuclear export in human HeLa cells transfected with pmCherry-C1 Cargo plasmid assessed as cytoplasmic cargo level incubated for 12 hrs by confocal microscopic analysis; assay type: functional, cell-based; conditions: dose 1-10 µM
# [10] = as §1; assay type: functional, cell-based
# [11] = molecular target: Exportin-1 (Saccharomyces cerevisiae) (UniProt P30822); test: Inhibition of GST-NES MVM binding to yeast CRM1 at 20 uM by pull down assay
# A549 [12] = test: Anti-cancer activity against human A549 cells assessed as inhibition of DNA synthesis incubated for 2 hrs by EdU incorporation based assay; assay type: functional, cell-based; conditions: dose 1-10 µM
# A2780 [13] = test: Anti-cancer activity against human A2780 cells assessed as cell survival at 10 uM for 72 hrs replaced with compound containing fresh culture medium every 12 hrs by Sulforhodamine B assay; assay type: functional, cell-based
# HGC-27 = test: Anti-cancer activity against human HGC-27 cells assessed as cell survival at 10 uM for 72 hrs replaced with compound containing fresh culture medium every 12 hrs by Sulforhodamine B assay; assay type: functional, cell-based
# HeLa [14] = test: Inhibition of cellular nuclear export of transfected cargo in human HeLa cells transfected with pmCherry-C1 plasmid at 1 to 10 uM incubated for 12 hrs by confocal microscope analysis; assay type: functional, cell-based; conditions: dose 1-10 µM
# A2780 [15] = test: Induction of apoptosis in human A2780 cells assessed as early apoptotic cells at 10 uM replaced with compound containing fresh culture medium every 12 hrs measured for 72 hrs by Annexin V FITC/propidium iodide staining based flow cytometric analysis (reference value: 3.67%); assay type: functional
# Huh-7 = test: Anti-cancer activity against human HuH-7 cells assessed as cell survival at 10 uM for 72 hrs replaced with compound containing fresh culture medium every 12 hrs by Sulforhodamine B assay; assay type: functional, cell-based
# SW48 = test: Anti-cancer activity against human SW48 cells assessed as cell survival at 10 uM for 72 hrs replaced with compound containing fresh culture medium every 12 hrs by Sulforhodamine B assay; assay type: functional, cell-based
# A2780 [16] = test: Induction of apoptosis in human A2780 cells assessed as early apoptotic cells at 5 uM replaced with compound containing fresh culture medium every 12 hrs measured for 72 hrs by Annexin V FITC/propidium iodide staining based flow cytometric analysis (reference value: 3.67%); assay type: functional
# Exportin-1 [17] = molecular target: T1, Exportin-1 (Homo sapiens, UniProt O14980); test: Binding affinity to Cy3 dye-labelled human CRM1 assessed as dissociation constant in absence of RanGTP at 10 uM incubated for 1 hr by micro-scale thermophoresis analysis
# T1 sequence (O14980 whole entry): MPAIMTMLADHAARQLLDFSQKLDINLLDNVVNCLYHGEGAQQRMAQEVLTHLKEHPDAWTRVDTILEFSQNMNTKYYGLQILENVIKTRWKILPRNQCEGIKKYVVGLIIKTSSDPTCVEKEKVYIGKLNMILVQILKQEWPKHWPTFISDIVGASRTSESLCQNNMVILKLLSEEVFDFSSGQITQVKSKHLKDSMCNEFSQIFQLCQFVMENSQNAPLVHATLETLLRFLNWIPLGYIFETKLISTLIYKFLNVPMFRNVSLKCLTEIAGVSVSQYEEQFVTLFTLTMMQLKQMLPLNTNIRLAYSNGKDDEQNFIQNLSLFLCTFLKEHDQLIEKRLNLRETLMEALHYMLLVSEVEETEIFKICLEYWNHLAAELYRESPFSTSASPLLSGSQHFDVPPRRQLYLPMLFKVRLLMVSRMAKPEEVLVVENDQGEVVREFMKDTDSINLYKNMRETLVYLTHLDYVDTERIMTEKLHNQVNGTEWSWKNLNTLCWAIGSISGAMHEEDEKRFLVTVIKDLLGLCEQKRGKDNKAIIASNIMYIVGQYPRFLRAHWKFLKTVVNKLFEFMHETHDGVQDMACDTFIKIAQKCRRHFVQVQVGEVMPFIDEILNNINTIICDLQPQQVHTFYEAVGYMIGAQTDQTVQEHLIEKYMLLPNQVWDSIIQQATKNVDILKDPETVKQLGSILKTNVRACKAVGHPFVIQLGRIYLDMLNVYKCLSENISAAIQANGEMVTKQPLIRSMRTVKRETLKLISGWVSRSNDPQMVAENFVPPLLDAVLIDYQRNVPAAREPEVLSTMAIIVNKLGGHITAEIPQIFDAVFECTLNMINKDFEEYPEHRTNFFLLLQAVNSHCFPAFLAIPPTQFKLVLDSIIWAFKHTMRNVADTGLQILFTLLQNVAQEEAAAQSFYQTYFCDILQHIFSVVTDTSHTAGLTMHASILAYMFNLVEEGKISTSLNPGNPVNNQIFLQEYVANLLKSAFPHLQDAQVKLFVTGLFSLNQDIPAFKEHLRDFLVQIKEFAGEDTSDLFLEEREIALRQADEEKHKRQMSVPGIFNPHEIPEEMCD
# A2780 [18] = test: Induction of apoptosis in human A2780 cells assessed as necrotic cells at 5 uM replaced with compound containing fresh culture medium every 12 hrs measured for 72 hrs by Annexin V FITC/propidium iodide staining based flow cytometric analysis (reference value: 1%); assay type: functional
# HeLa [19] = test: Anti-cancer activity against human HeLa cells assessed as inhibition of cell viability measured for 72 hrs replaced with compound containing fresh culture medium every 12 hrs by Sulforhodamine B assay; assay type: functional, cell-based
# HepG2 [20] = test: Anti-cancer activity against human HepG2 cells assessed as cell survival at 10 uM for 72 hrs replaced with compound containing fresh culture medium every 12 hrs by Sulforhodamine B assay; assay type: functional, cell-based
# A2780 [21] = test: Induction of apoptosis in human A2780 cells assessed as late apoptotic cells at 5 uM replaced with compound containing fresh culture medium every 12 hrs measured for 72 hrs by Annexin V FITC/propidium iodide staining based flow cytometric analysis (reference value: 1.35%); assay type: functional
# HeLa [22] = test: Anti-cancer activity against human HeLa cells assessed as cell survival at 10 uM for 72 hrs replaced with compound containing fresh culture medium every 12 hrs by Sulforhodamine B assay; assay type: functional, cell-based
# HeLa [23] = test: Anti-cancer activity against human HeLa cells transfected with hCRM1-C528T/K568A dual mutant assessed as measuring cell survival at 10 uM for 72 hrs replaced with compound containing fresh culture medium every 12 hrs by Sulforhodamine B assay; assay type: functional, cell-based
# HeLa [24] = test: Binding affinity to human CRM1 C528S mutant transfected HeLa cells assessed as inhibition of nuclear export of cargoes at 10 uM incubated for 12 hrs by confocal microscope analysis; assay type: cell-based
# MGC-803 = test: Anti-cancer activity against human MGC-803 cells assessed as cell survival at 10 uM for 72 hrs replaced with compound containing fresh culture medium every 12 hrs by Sulforhodamine B assay; assay type: functional, cell-based
# HeLa [25] = test: Anti-cancer activity against human HeLa cells transfected with hCRM1-C528T/F572Y dual mutant assessed as cell survival at 10 uM for 72 hrs replaced with compound containing fresh culture medium every 12 hrs by Sulforhodamine B assay; assay type: functional, cell-based
# A2780 [26] = test: Induction of apoptosis in human A2780 cells assessed as late apoptotic cells at 10 uM replaced with compound containing fresh culture medium every 12 hrs measured for 72 hrs by Annexin V FITC/propidium iodide staining based flow cytometric analysis (reference value: 1.35%); assay type: functional
# A2780 [27] = test: Induction of apoptosis in human A2780 cells assessed as necrotic cells at 1 uM replaced with compound containing fresh culture medium every 12 hrs measured for 72 hrs by Annexin V FITC/propidium iodide staining based flow cytometric analysis (reference value: 1%); assay type: functional
# Exportin-1 [28] = molecular target: T1, Exportin-1; test: Inhibition of MBP-NES PKI binding to human CRM1 in presence RanGTP at 20 uM by pull down assay
# Exportin-1 [29] = molecular target: T1, Exportin-1; test: Binding affinity to wild type human CRM1 transfected HeLa cells assessed as inhibition of nuclear export of cargoes at 10 uM incubated for 12 hrs by confocal microscope analysis; assay type: cell-based
smiles,measurement,setting,value
CC(C)CCNC/C=C/[S+]([O-])c1cc(C(F)(F)F)cc(C(F)(F)F)c1 (stereo not given),inhibition,HeLa [1],inactive
same,Activity,HCT-116,Active
same,pIC50,HepG2 [2],5.54
same,viability at 1 µM,A2780 [3],92.8%
same,pIC50,A2780 [4],5.30
same,Activity,A2780 [5],1.33%
same,fold change (FC),A2780 [6],2
same,Activity,HeLa [7],Dose-Dependent Effect
same,pIC50,A549 [8],5.17
same,Activity,PANC-1,Active
same,inhibition,HeLa [9],Dose-Dependent Effect
same,pEC50,[10],5.49
same,inhibition,[11],Active
same,Activity,A549 [12],Dose-Dependent Effect
same,Activity,A2780 [13],Active
same,Activity,HGC-27,Active
same,inhibition,HeLa [14],Active
same,Activity,A2780 [15],24.26%
same,Activity,Huh-7,Active
same,Activity,SW48,Active
same,Activity,A2780 [16],15.55%
same,pKd,Exportin-1 [17],7.62
same,Activity,A2780 [18],1.88%
same,pIC50,HeLa [19],5.42
same,Activity,HepG2 [20],Active
same,Activity,A2780 [21],3.29%
same,Activity,HeLa [22],Active
same,pIC50,HeLa [23],5.70
same,inhibition,HeLa [24],Active
same,Activity,MGC-803,Active
same,pIC50,HeLa [25],5.59
same,Activity,A2780 [26],7.14%
same,Activity,A2780 [27],1.1%
same,inhibition,Exportin-1 [28],Active
same,inhibition,Exportin-1 [29],Active

# Reference: ChEMBL document CHEMBL5036314, “Structure-Guided Design of the First Noncovalent Small-Molecule Inhibitor of CRM1” (J Med Chem, 2021)
